Laboratory results published in patent publication US5441941A, “1,2-dihydroellipticines with activity against CNS specific cancer” (The United States of America as represented by the …, priority 1993, dated 1995).

Legend:
OVCAR-3 = test: NCI in vitro screen, SRB percent growth, Ovarian Cancer
SF-268 = test: NCI in vitro screen, SRB percent growth, CNS Cancer
XF 498 = test: as above
ACHN = test: NCI in vitro screen, SRB percent growth, Renal Cancer
HOP-62 = test: NCI in vitro screen, SRB percent growth, Non-Small Cell Lung Cancer
MOLT-4 = test: cells; conditions: Homo sapiens
UACC-257 = test: NCI in vitro screen, SRB percent growth, Melanoma
U251 = test: NCI in vitro screen, SRB percent growth, CNS Cancer
LXFL 529 = test: cells; conditions: Homo sapiens
NCI-H460 = test: NCI in vitro screen, SRB percent growth, Non-Small Cell Lung Cancer
DMS 114 = test: cells; conditions: Homo sapiens
HCT-15 = test: NCI in vitro screen, SRB percent growth, Colon Cancer
SK-MEL-28 = test: NCI in vitro screen, SRB percent growth, Melanoma
HCC-2998 = test: cells; conditions: Homo sapiens
TK-10 = test: NCI in vitro screen, SRB percent growth, Renal Cancer
A549/ATCC = test: NCI in vitro screen, SRB percent growth, Non-Small Cell Lung Cancer
CAKI-1 = test: NCI in vitro screen, SRB percent growth, Renal Cancer
[1] = Log10 Concentration -4.0, 100 µM
[2] = Log10 Concentration -7.0, 0.1 µM
[3] = MOLT-4, read-out: Percent Growth
[4] = LXFL 529, read-out: Percent Growth
[5] = HCC 2998, read-out: Percent Growth

COc1ccc2[nH]c3c(C)c4c(c(C)c3c2c1)CN(C)C=C4 [Formula VII]
Percent Growth (OVCAR-3; [1]): -31%
Percent Growth (OVCAR-3; Log10 Concentration -5.0): 10%
Percent Growth (OVCAR-3; Log10 Concentration -6.0, 1 µM): 74%
Percent Growth (OVCAR-3; [2]): 91%
Percent Growth (OVCAR-3; Log10 Concentration -8.0): 98%
TGI (OVCAR-3; PG=0): 17.3 µM
GI50 (OVCAR-3; PG=+50): 2.39 µM
CC50 (OVCAR-3; read-out: LC-50, PG=-50): > 100 µM
Percent Growth (SF-268; [1]): -55%
Percent Growth (SF-268; Log10 Concentration -5.0): -45%
Percent Growth (SF-268; Log10 Concentration -6.0, 1 µM): 2%
Percent Growth (SF-268; [2]): 76%
Percent Growth (SF-268; Log10 Concentration -8.0): 91%
TGI (SF-268; PG=0): 1.1 µM
GI50 (SF-268; PG=+50): 0.223 µM
CC50 (SF-268; read-out: LC-50, PG=-50): 35 µM
Percent Growth (XF 498; [1]): -60%
Percent Growth (XF 498; Log10 Concentration -5.0): -25%
Percent Growth (XF 498; Log10 Concentration -6.0, 1 µM): 81%
Percent Growth (XF 498; [2]): 140%
Percent Growth (XF 498; Log10 Concentration -8.0): 174%
TGI (XF 498; PG=0): 5.82 µM
GI50 (XF 498; PG=+50): 1.97 µM
CC50 (XF 498; read-out: LC-50, PG=-50): 52.7 µM
Percent Growth (ACHN; [1]): -4%
Percent Growth (ACHN; Log10 Concentration -5.0): 79%
Percent Growth (ACHN; Log10 Concentration -6.0, 1 µM): 102%
Percent Growth (ACHN; [2]): 113%
Percent Growth (ACHN; Log10 Concentration -8.0): 113%
TGI (ACHN; PG=0): 89.1 µM
GI50 (ACHN; PG=+50): 22.4 µM
CC50 (ACHN; read-out: LC-50, PG=-50): > 100 µM
Percent Growth (HOP-62; [1]): -81%
Percent Growth (HOP-62; Log10 Concentration -5.0): -57%
Percent Growth (HOP-62; Log10 Concentration -6.0, 1 µM): 14%
Percent Growth (HOP-62; [2]): 106%
Percent Growth (HOP-62; Log10 Concentration -8.0): 115%
TGI (HOP-62; PG=0): 1.58 µM
GI50 (HOP-62; PG=+50): 0.406 µM
CC50 (HOP-62; read-out: LC-50, PG=-50): 7.89 µM
GI50 (MOLT-4; MOLT-4): 0.3 µM
CC50 (MOLT-4; MOLT-4, read-out: LC-50): > 100 µM
activity at 0.01 µM (MOLT-4; [3]): 110%
activity at 0.1 µM (MOLT-4; [3]): 68%
activity at 1 µM (MOLT-4; [3]): 30%
activity at 10 µM (MOLT-4; [3]): 8%
activity at 100 µM (MOLT-4; [3]): -27%
IC (TGI) (MOLT-4; MOLT-4, read-out: TGI): 16.7 µM
Percent Growth (UACC-257; [1]): -5%
Percent Growth (UACC-257; Log10 Concentration -6.0, 1 µM): 108%
Percent Growth (UACC-257; [2]): 113%
Percent Growth (UACC-257; Log10 Concentration -8.0): 110%
TGI (UACC-257; PG=0): 80.7 µM
GI50 (UACC-257; PG=+50): 9.63 µM
CC50 (UACC-257; read-out: LC-50, PG=-50): > 100 µM
Percent Growth (U251; [1]): -47%
Percent Growth (U251; Log10 Concentration -5.0): -45%
Percent Growth (U251; Log10 Concentration -6.0, 1 µM): 3%
Percent Growth (U251; [2]): 87%
TGI (U251; PG=0): 1.18 µM
GI50 (U251; PG=+50): 0.276 µM
CC50 (U251; read-out: LC-50, PG=-50): > 100 µM
GI50 (LXFL 529; LXFL 529): 0.129 µM
CC50 (LXFL 529; LXFL 529, read-out: LC-50): 29.1 µM
activity at 0.01 µM (LXFL 529; [4]): 66%
activity at 0.1 µM (LXFL 529; [4]): 54%
activity at 1 µM (LXFL 529; [4]): 14%
activity at 10 µM (LXFL 529; [4]): -38%
activity at 100 µM (LXFL 529; [4]): -64%
IC (TGI) (LXFL 529; LXFL 529, read-out: TGI): 1.88 µM
Percent Growth (NCI-H460; [1]): -71%
Percent Growth (NCI-H460; Log10 Concentration -6.0, 1 µM): 67%
Percent Growth (NCI-H460; [2]): 85%
Percent Growth (NCI-H460; Log10 Concentration -8.0): 93%
TGI (NCI-H460; PG=0): 9.4 µM
GI50 (NCI-H460; PG=+50): 1.78 µM
CC50 (NCI-H460; read-out: LC-50, PG=-50): 49.5 µM
GI50 (DMS 114; DMS-114): 0.183 µM
IC (TGI) (DMS 114; DMS-114, read-out: TGI): 1.7 µM
Percent Growth (HCT-15; [1]): 16%
Percent Growth (HCT-15; Log10 Concentration -5.0): 96%
Percent Growth (HCT-15; Log10 Concentration -6.0, 1 µM): 111%
Percent Growth (HCT-15; [2]): 114%
Percent Growth (HCT-15; Log10 Concentration -8.0): 118%
TGI (HCT-15; PG=0): > 100 µM
GI50 (HCT-15; PG=+50): 37.7 µM
CC50 (HCT-15; read-out: LC-50, PG=-50): > 100 µM
Percent Growth (SK-MEL-28; [1]): -75%
Percent Growth (SK-MEL-28; Log10 Concentration -5.0): 4%
Percent Growth (SK-MEL-28; Log10 Concentration -6.0, 1 µM): 91%
Percent Growth (SK-MEL-28; [2]): 105%
Percent Growth (SK-MEL-28; Log10 Concentration -8.0): 101%
TGI (SK-MEL-28; PG=0): 11.3 µM
GI50 (SK-MEL-28; PG=+50): 2.95 µM
CC50 (SK-MEL-28; read-out: LC-50, PG=-50): 48.6 µM
GI50 (HCC-2998; HCC 2998): 4.74 µM
CC50 (HCC-2998; HCC 2998, read-out: LC-50): 43.9 µM
activity at 0.01 µM (HCC-2998; [5]): 111%
activity at 0.1 µM (HCC-2998; [5]): 90%
activity at 1 µM (HCC-2998; [5]): 98%
activity at 10 µM (HCC-2998; [5]): 27%
activity at 100 µM (HCC-2998; [5]): -93%
IC (TGI) (HCC-2998; HCC 2998, read-out: TGI): 16.8 µM
Percent Growth (TK-10; [1]): -6%
Percent Growth (TK-10; Log10 Concentration -5.0): 64%
Percent Growth (TK-10; Log10 Concentration -6.0, 1 µM): 114%
Percent Growth (TK-10; [2]): 127%
Percent Growth (TK-10; Log10 Concentration -8.0): 120%
TGI (TK-10; PG=0): 82.7 µM
GI50 (TK-10; PG=+50): 15.9 µM
CC50 (TK-10; read-out: LC-50, PG=-50): > 100 µM
Percent Growth (A549/ATCC; [1]): -26%
Percent Growth (A549/ATCC; Log10 Concentration -5.0): 10%
Percent Growth (A549/ATCC; Log10 Concentration -6.0, 1 µM): 51%
Percent Growth (A549/ATCC; [2]): 87%
Percent Growth (A549/ATCC; Log10 Concentration -8.0): 102%
TGI (A549/ATCC; PG=0): 19.2 µM
GI50 (A549/ATCC; PG=+50): 1.05 µM
CC50 (A549/ATCC; read-out: LC-50, PG=-50): > 100 µM
Percent Growth (CAKI-1; [1]): -11%
Percent Growth (CAKI-1; Log10 Concentration -5.0): 38%
Percent Growth (CAKI-1; Log10 Concentration -6.0, 1 µM): 83%
Percent Growth (CAKI-1; [2]): 107%
Percent Growth (CAKI-1; Log10 Concentration -8.0): 110%
TGI (CAKI-1; PG=0): 60.7 µM
GI50 (CAKI-1; PG=+50): 5.5 µM
CC50 (CAKI-1; read-out: LC-50, PG=-50): > 100 µM
